Data from PMC8304610, “Discovery of Novel 2,4-Dianilinopyrimidine Derivatives Containing 4-(Morpholinomethyl)phenyl and N-Substituted Benzamides as Potential FAK Inhibitors and Anticancer Agents” (Molecules, 2021).

How the values were obtained:
H1975 cells [1] = assay: Annexin V-FITC/PI flow cytometry apoptosis assay; assay type: cell-based, human; details: H1975, 0.1, 0.5, 1 μM, 48 h
Experimental: (§1) H1975 cells were seeded at a density of 1 × 10^5 cells/well into 6-well plates for 24 h and then exposed to different concentrations of inhibitors for 48 h. The cells were harvested. (1) The cells were stained with Annexin V-FITC (5 µL)/propidium iodide (5 µL), and the samples were detected and flow cytometry (Becton-Dickinson, Franklin Lakes, NJ, USA) was performed to quantify the number of apoptotic cells. (2) The cells were stained with propidium iodide (PI) in the dark for 30 min, and then analyzed for cell cycle distribution by the flow cytometry assay.

[2] = tested on: H1975 non-small cell lung cancer (NSCLC) cells; assay: CCK-8 cell viability assay, H1975; assay type: cell-based; details: Homo sapiens, NCI-H1975, CCK-8, 72 h, mean ± SD of three experiments, read-out: Antiproliferative Activity IC50, H1975
Experimental: (§2) The H1975 human NSCLC cell line was obtained from ATCC. A431 human epithelial carcinoma and HBE human bronchial epithelial cell lines were kind gifts from Fuheng Biological Company Ltd. (Shanghai, China) and YuXi Biotech Company (Jiangsu, China), respectively. The cells were maintained in RPMI 1640 or DMEM (Gibco®, Thermo Fisher Scientific Inc., Waltham, MA, USA) containing 10% fetal bovine serum (FBS, Gibco®) and 1% penicillin-streptomycin (Beyotime Company, Shanghai, China) at 37 °C in a 5% CO2 incubator.
(§3) A total of 3000 cells of H1975 or HBE and 5000 cells of A431 were seeded for each well into a 96-well plate and cultured in 10% FBS respective growth medium overnight. Various concentrations (0–20 μM) of each compound were then added in triplicate to the cells. After 72 h of incubation, 10 μL of CCK-8 solution (5.0 mg/mL, Biotool Company, Kirchberg, Switzerland) was added to each well and the cells continued to culture for 4 h. The optical density (OD) was determined at 450 nm with a microplate reader (Thermo Fisher Scientific, Waltham, MA, USA). IC50 values were calculated employing GraphPad Prism version 8.0.

FAK kinase = biological target: T1, FAK kinase (Homo sapiens, UniProt Q05397); assay: ADP-Glo kinase enzymatic assay; assay type: biochemical; details: mean ± SD of three independent experiments
T1 construct: purchased Promega Corporation V9301
Experimental: The ADP-Glo™ Kinase Assay Kit and FAK Kinase Enzyme (Catalog. V9301) were purchased from Promega Corporation (Madison, WI, USA). The experiments were performed according to the detailed and complete protocols of the manufacturer. Briefly, the concentration of FAK determined by optimization experiments was 0.1 μg/μL. Suitable concentration gradients from 1.6 to 1000 nM were set for all the tested compounds. A kinase reaction buffer, a substrate/ATP mixture, and a FAK solution were prepared right before use. The 5 μL kinase reaction consisted of 1 μL of compound solution, 2 μL of substrate/ATP mixture, and 2 μL of FAK solution. The control without enzyme was provided by 3 μL of kinase reaction buffer and 2 μL of substrate/ATP mixture. The negative control was prepared using 1 μL of kinase reaction buffer instead of a compound solution. The kinase reactions were added to a 384-well plate and incubated at room temperature for 60 min, then 5 μL of ADP-Glo™ Reagent was added to stop the kinase reaction and deplete the unconsumed ATP, and incubated at room temperature for 40 min. After adding 10 μL of Kinase Detection Reagent, the plate was incubated at room temperature for 30 min and then luminescence was recorded (integration time 0.5–1 s) on a TriStar® LB942 Multimode Microplate Reader (BERTHOLD TECHNOLOGIES GmbH & Co. KG., Bad Wildbad, Germany). Curve fitting and data presentations were performed using GraphPad Prism version 8.0.

H1975 cells [3] = assay: AO/EB staining assay; assay type: cell-based, human; details: H1975, 0.1, 0.5, and 1 μM
Experimental: H1975 cells at a density of 1 × 10^5 cells/well in 6-well plates were incubated for 24 h. After discarding the original culture medium, different concentrations of inhibitors were used. The cells were incubated for 48 h and then washed with phosphate-buffered saline (PBS) three times. Cells were subsequently incubated in the dye mix containing 1.0 µg/mL of AO and 1.0 µg/mL of EB in PBS at 37 °C for 5 min, and then washed with PBS. The apoptotic, necrotic, and live cells were examined under the fluorescent inverted microscope (OLYMPUS, Tokyo, Japan).

H1975 cells [4] = assay: Scratch (cell migration) assay; assay type: cell-based, human; details: H1975, 0.1, 0.5, and 1 μM, 24 h
Experimental: H1975 cells were seeded in 6-well plates and incubated for 12 h. When cells were grown to 90–100% confluency in a monolayer, wounds were generated using a pipette tip. […] The images were captured to record the status of cells near the scratch lines at the beginning and after 12 and 24 h.

[5] = tested on: A431 human epithelial carcinoma cells; assay: CCK-8 cell viability assay, A431; assay type: cell-based; details: A-431, CCK-8, 72 h, mean ± SD of three experiments, read-out: Antiproliferative Activity IC50, A431
Experimental: as §2, §3

[6] = tested on: normal human bronchial epithelial cells (HBE); assay: CCK-8 cellular selectivity assay, HBE; assay type: cell-based
Experimental: as §2, §3

H1975 cells [7] = assay: Cell cycle analysis by PI flow cytometry; assay type: cell-based, human; details: 48 h
Experimental: as §1

T1 sequence (Q05397 393-698 limits assumed): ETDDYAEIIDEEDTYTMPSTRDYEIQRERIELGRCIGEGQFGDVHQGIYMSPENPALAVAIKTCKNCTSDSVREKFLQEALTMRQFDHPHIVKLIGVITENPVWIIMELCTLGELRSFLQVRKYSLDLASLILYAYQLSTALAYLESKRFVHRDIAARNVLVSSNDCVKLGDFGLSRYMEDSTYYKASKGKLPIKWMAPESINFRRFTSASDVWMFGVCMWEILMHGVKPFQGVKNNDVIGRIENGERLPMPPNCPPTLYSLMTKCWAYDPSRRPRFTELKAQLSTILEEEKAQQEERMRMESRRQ

IC50 [2]: 44 ± 11 nM
IC50 (FAK kinase): 47 ± 6 nM
IC50 [5]: 119 ± 36 nM
SMILES: O=C(NCCO)c1ccccc1Nc1nc(Nc2ccc(CN3CCOCC3)cc2)ncc1Cl [Compound 8a, 2-((5-Chloro-2-((4-(morpholinomethyl)phenyl)amino)pyrimidin-4-yl)amino)-N-(2-hydroxyethyl)benzamide]
Apoptosis induction (in words) (H1975 cells [1]): substantially increased the extent of apoptosis in H1975 cells in a dose-dependent manner
Apoptotic morphology (in words) (H1975 cells [3]): exhibited certain morphological phenomena characteristic of apoptosis
Cell migration (in words) (H1975 cells [4]): reduced migration distances
IC50 ([6]; Homo sapiens, Epithelial cell, HBE normal cells, CCK-8, 72 h, mean ± SD of three experiments, read-out: Antiproliferative Activity IC50, HBE): 1040 ± 266 nM
SI Values (selectivity index) ([6]; IC50 for HBE cell line/IC50 for H1975 cell line): 24
%G1 (G0/G1 phase) cells (H1975 cells [7]; H1975, 1.0 μM): 39.06%
%G2 (G2/M phase) cells (H1975 cells [7]; H1975, 1.0 μM): 37.29%
%S phase cells (H1975 cells [7]; H1975, 1.0 μM): 23.65%
Cell cycle arrest (in words) (H1975 cells [7]; H1975, 0.1, 0.5, and 1 μM): induced cell cycle arrest in S/G2 phase in a dose-dependent manner
